Experimental data from PMC3793267 (Biomarkers, 2008).

Assays:
[1] = biological target: T1, rat plasma albumin (Rattus norvegicus, UniProt P02770); assay: biochemical; format: binding
[2] = tested on: rats; assay: Clinical signs in rats after oral dosing
[3] = biological target: T1, rat plasma albumin; assay: Plasma albumin binding by pesticide in vivo after oral dosing of rats; design: species or system F344 rats; details: for inhibition of binding of the ^3H-DFP-radiolabelled albumin molecules in vivo: 25% of LD50, plasma 1 day after dosing
[4] = biological target: erythrocyte AChE (Rattus norvegicus, UniProt P37136); assay: Erythrocyte AChE inhibition after oral dosing of rats; format: in vivo, F344 rats
[5] = tested on: Erythrocyte AChE; details: steady (linear) recovery; ref Mason [2000]; cited from earlier work

T1 sequence (P02770 25-608): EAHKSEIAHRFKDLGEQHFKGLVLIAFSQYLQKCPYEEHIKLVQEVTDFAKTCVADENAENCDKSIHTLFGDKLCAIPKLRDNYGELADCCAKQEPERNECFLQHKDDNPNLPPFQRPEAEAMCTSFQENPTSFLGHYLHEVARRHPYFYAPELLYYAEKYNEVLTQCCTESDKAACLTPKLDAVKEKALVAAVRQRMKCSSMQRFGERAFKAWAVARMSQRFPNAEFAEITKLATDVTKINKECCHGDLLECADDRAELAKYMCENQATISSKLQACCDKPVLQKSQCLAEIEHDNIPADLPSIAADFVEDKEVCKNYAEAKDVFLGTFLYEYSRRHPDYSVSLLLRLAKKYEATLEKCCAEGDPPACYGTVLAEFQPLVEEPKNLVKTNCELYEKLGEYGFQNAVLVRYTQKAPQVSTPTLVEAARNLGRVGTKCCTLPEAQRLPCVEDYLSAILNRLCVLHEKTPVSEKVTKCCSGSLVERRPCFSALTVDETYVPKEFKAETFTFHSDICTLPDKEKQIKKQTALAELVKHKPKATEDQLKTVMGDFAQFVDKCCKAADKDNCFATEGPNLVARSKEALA

In the case of COP(=O)(OC)SCn1c(=O)oc2cc(Cl)cnc21 [Azamethiphos (oxon), S-6-chloro-2,3-dihydro-2-oxo-1,3-oxazolo[4,5-b]pyridin-3-ylmethyl O,O-dimethyl phosphorothioate], the “rat plasma albumin binding (^3H-DFP radiolabelling) reduced from controls” value [1] is reported as 9±1%.

In the case of CCOP(=O)(OCC)OC(=CCl)c1ccc(Cl)cc1Cl [Chlorfenvinphos (oxon), 2-chloro-1-(2,4-dichlorophenyl)vinyl diethyl phosphate], the IC50 [1] is reported as roughly 400 nM, the “^3H-DFP incorporation into rat plasma albumin versus controls (significance)” value [1] is reported as “significantly different from controls” and the “rat plasma albumin binding (^3H-DFP radiolabelling) reduced from controls” value [1] is reported as 67±2%. The clinical signs ([2]; 12.5% of LD50 (1.25 mg kg^−1)) was “not the lower dose”, the clinical signs ([2]; 80% of LD50 (8.0 mg kg^−1)) was “salivation and muscle fasciculation in all rats” and the “inhibition of binding of the ^3H-DFP-radiolabelled albumin molecules in vivo” value [3] was “approximately 50%”. The “^3H-DFP radiolabelled albumin molecules bound in vivo” value ([3]; each of the doses 12.5%, 25% and 80% of LD50, 24 h after dosing) was “approximately 50%” and the inhibition at 1.25 mg/kg ([4]; rat, po, read-out: erythrocyte AChE inhibition) was 22%.

With CCOC(=O)CC(SP(=O)(OC)OC)C(=O)OCC (stereo not shown) [Malaoxon] the “rat plasma albumin binding (^3H-DFP radiolabelling) reduced from controls” value [1] was 8±1%.

With CCOC(=O)CC(SP(=S)(OC)OC)C(=O)OCC (stereo not shown) [Malathion, diethyl (dimethoxyphosphinothioylthio)succinate] the “erythrocyte AChE inhibition” value ([4]; rats, oral, (approximately) 25% of LD50, Day 1 (24 h) after dosing) was 57%.

With CCN(CC)c1nc(C)cc(OP(=S)(OC)OC)n1 [Pirimiphos-methyl, O-2-diethylamino-6-methylpyrimidin-4-yl O,O-dimethyl phosphorothioate] the “inhibition of binding of the ^3H-DFP-radiolabelled albumin molecules in vivo” value [3] was “approximately 50%”.

In the case of COP(=O)(OC)OC=C(Cl)Cl [dichlorvos], the “time for erythrocyte AChE to return to control levels” value [5] is listed as “approximately 82 days”.
